Like-named read-outs stand apart in the source and are kept apart here. Non-standard residues stand in square brackets, D forms with d. No end group written: not given here. hArg = N=C(N)NCCCC[C@H](N)C(=O)O

One data set has as its system NMUR1 or NMUR2 receptors. Briefly: Receptor specificity: binding and activation of NMUR1 or NMUR2. Format: biochemical. To be noted: bind and activate.
The next data set concerns mice. To be noted: cited from earlier work.
The subject of another data set is PYY levels in plasma. Put plainly: Plasma PYY levels in diet-induced obese mice after subcutaneous dosing. Format: in vivo. Here is the method: (§1) Animal dosing was as follows. Ad libitum fed male diet-induced obese mice were weighed and dosed subcutaneously about 30 minutes prior to the onset of the dark phase of the light cycle. Animals were either not given food or allowed food during treatment. For NMU studies, plasma was collected by cardiac sticks at two or four hours post dose. For studies with the PEGylated NMU analog, plasma was collected at multiple time points up to 18-hours post dose.
(§2) GLP-1 levels in plasma were measured using the Total GLP-1 kit from Meso Scale Discovery, Gaithersburg, Md. Glucagon levels were measured using the Metabolic Multiplex kit from Meso Scale Discovery, Gaithersburg, Md. PYY levels were measured using the PYY Luminex assay from Millipore, Billerica, Mass. The data shown reports of glucagon, PYY and GLP-1 levels as pg/mL (all values are reported as mean±SEM and data was analyzed using a two-tailed unpaired Student's t test; p values ≦0.05 were reported as significant and are denoted with an asterisk).
(§3) Diet-induced obese mice (DIO) were purchased from Taconic Farms. NMUR1 knockout (Nmur1−/−) mice were generated using standard homologous recombination techniques. U.S. Published Application No. 20080172752 discloses NMUR1 knockout mice. NMUR2 knockout (Nmur2−/−) mice were licensed from Deltagen Inc., San Mateo, Calif. and subsequently transferred to Taconic Farms. Mice were individually housed in Tecniplast cages in a conventional SPF facility. Mice were initially maintained on a regular chow diet and then early in their life were switched to a high fat diet (D12492: 60% kcal from fat; Research Diets, Inc., New Brunswick, N.J.) with ad libitum access to water in a 12-hour light/12-hour dark cycle.

A further data set concerns GLP-1 levels in plasma. Briefly: Plasma GLP-1 levels in wild-type, Nmur1-deficient and Nmur2-deficient mice. To be noted: four-hours post dose, absence of food (FIG. 3). Format: in vivo. Here is the method:
as §2, §3
Plasma was collected from wild-type, Nmur1-deficient and Nmur2-deficient mice four-hours post dose in the absence of food.

The subject of data set [1] is total GLP-1 levels in plasma. Put plainly: Plasma total GLP-1 levels in diet-induced obese mice after subcutaneous dosing. In kind it is in vivo. To be noted: for total GLP-1 levels: 10 mpk. Here is the method:
as §1, §2, §3

Another data set has as its system plasma glucose levels. Put plainly: Oral glucose tolerance test, plasma glucose. Format: in vivo, mice. To be noted: 15 minutes after oral glucose tolerance test (FIG. 6A). The method, then:
(§4) The Oral Glucose Tolerance Test (OGTT) was performed as follows: Ad libitum fed male diet-induced obese mice were weighed and dosed subcutaneously about 30 minutes prior to the onset of the dark phase of the light cycle. Animals were not given food after dosing. The next day, approximately 18-hours after dosing, basal glucose levels were measured from animals by tail blood. Animals were then administered a glucose dose (1.5 g/kg) by oral gavage and fifteen minutes after dosing with glucose, plasma was collected to evaluate glucagon and glucose levels.
as §3

Data set [2] deals with glucagon levels in plasma. Put plainly: Oral glucose tolerance test, plasma glucagon. In kind it is in vivo, mice. To be noted: 15 minutes after oral glucose tolerance test (FIG. 6B). Here is the method:
as §4, §2
Diet-induced obese mice (DIO) were purchased from Taconic Farms. NMUR1 knockout (Nmur1−/−) mice were generated using standard homologous recombination techniques. U.S. Published Application No. 20080172752 discloses NMUR1 knockout mice. […]

The test system of a further data set is Nmur1 knockout mice. Put plainly: Food intake and weight gain in Nmur1 knockout mice after peripheral administration. In kind it is in vivo. As to conditions: administered peripherally.

“FRVDEEFQSPFASQSRGFWLFRA-(Harg)-N-CONH2 (FRVDEEFQSPFASQSRGFWLFRA[hArg]N-NH2; N-terminus assumed; SMILES CC(C)C[C@H](NC(=O)[C@H](Cc1c[nH]c2ccccc12)NC(=O)[C@H](Cc1ccccc1)NC(=O)CNC(=O)[C@H](CCCNC(=N)N)NC(=O)[C@H](CO)NC(=O)[C@H](CCC(N)=O)NC(=O)[C@H](CO)NC(=O)[C@H](C)NC(=O)[C@H](Cc1ccccc1)NC(=O)[C@@H]1CCCN1C(=O)[C@H](CO)NC(=O)[C@H](CCC(N)=O)NC(=O)[C@H](Cc1ccccc1)NC(=O)[C@H](CCC(=O)O)NC(=O)[C@H](CCC(=O)O)NC(=O)[C@H](CC(=O)O)NC(=O)[C@@H](NC(=O)[C@H](CCCNC(=N)N)NC(=O)[C@@H](N)Cc1ccccc1)C(C)C)C(=O)N[C@@H](Cc1ccccc1)C(=O)N[C@@H](CCCNC(=N)N)C(=O)N[C@@H](C)C(=O)N[C@@H](CCCCNC(=N)N)C(=O)N[C@@H](CC(N)=O)C(N)=O)”: the “receptor specificity (NMUR1 / NMUR2)” value in the data set on NMUR1 or NMUR2 receptors is “bispecific”.

Regarding “FRVDEEFQSPFASQSRGFWLFRP-(Harg)-N-CONH2 (FRVDEEFQSPFASQSRGFWLFRP[hArg]N-NH2; N-terminus assumed; SMILES CC(C)C[C@H](NC(=O)[C@H](Cc1c[nH]c2ccccc12)NC(=O)[C@H](Cc1ccccc1)NC(=O)CNC(=O)[C@H](CCCNC(=N)N)NC(=O)[C@H](CO)NC(=O)[C@H](CCC(N)=O)NC(=O)[C@H](CO)NC(=O)[C@H](C)NC(=O)[C@H](Cc1ccccc1)NC(=O)[C@@H]1CCCN1C(=O)[C@H](CO)NC(=O)[C@H](CCC(N)=O)NC(=O)[C@H](Cc1ccccc1)NC(=O)[C@H](CCC(=O)O)NC(=O)[C@H](CCC(=O)O)NC(=O)[C@H](CC(=O)O)NC(=O)[C@@H](NC(=O)[C@H](CCCNC(=N)N)NC(=O)[C@@H](N)Cc1ccccc1)C(C)C)C(=O)N[C@@H](Cc1ccccc1)C(=O)N[C@@H](CCCNC(=N)N)C(=O)N1CCC[C@H]1C(=O)N[C@@H](CCCCNC(=N)N)C(=O)N[C@@H](CC(N)=O)C(N)=O)”, the “receptor specificity (NMUR1 / NMUR2)” value with NMUR1 or NMUR2 receptors is given as “bispecific”.

With FALFRPRN-CONH2 (FALFRPRN-NH2), the “receptor specificity (NMUR1 / NMUR2)” value with NMUR1 or NMUR2 receptors is “bispecific”.

For “rat NMU-23: full length NMU, a 23-mer (NMU-23) in rats and mice (YKVNEYQGPVAPSGGFFLFRPRN; ends and bridges not checked; UniProt P12760 144-166, looked up) [reference compound]”, the “body weight, body composition, body temperature and food intake” value with mice (chronic central administration, Nmur2-/- transgenic mice) is “largely unaffected”. In addition, the “body weight, body composition and food intake” value with mice (chronic peripheral administration, Nmur1-/- transgenic mice) was “largely unaffected”.

“FRVDEEFQSPFASQSRGYFLFRPRN-CONH2 (FRVDEEFQSPFASQSRGYFLFRPRN-NH2) [NMU]”: the “increase of PYY levels” value with PYY levels in plasma (10 mpk, four-hours post dose, obese mice (FIG. 1A)) is “about two-fold”. The PYY levels entry is on record as “increased” with PYY levels in plasma (10 mpk, four-hours post dose, obese mice (FIG. 1B)) and “increased” in the data set on PYY levels in plasma (10 mpk, two-hours post dose, obese mice (FIG. 1B)). Besides, the food intake entry with mice (acute administration, centrally or peripherally, mice) is reported as “reduce”. Further, the core body temperature result in the data set on mice (acute peripheral administration, mice) was “dose-dependently increases”. The anorectic actions entry is reported as “present” in the data set on mice (centrally administered, NMUR1-deficient (Nmur1-/-) mice); “absent” in the data set with mice (centrally administered, NMUR2-deficient (Nmur2-/-) mice); “absent” with mice (peripherally administered, Nmur1-/- mice); “present” with mice (peripherally administered, Nmur2-/- mice). Besides, the “food intake, body weight and adiposity” value in the data set with mice (chronic administration, centrally or peripherally, mice) is given as “reduces”. The GLP-1 levels result was “not” with GLP-1 levels in plasma (Nmur1-deficient mice), “Increased” in the data set on GLP-1 levels in plasma (Nmur2-deficient mice) and “Increased” in the data set on GLP-1 levels in plasma (wild-type mice). Further, the “total GLP-1 levels” value in data set [1] (four-hours post dose, obese mice (FIG. 2A)) is recorded as “increased”. The “total GLP-1” value in data set [1] (chronic treatment 3 mpk/day subcutaneously for two weeks (FIG. 2B)) is “significant increase”.

Regarding “Ac-C2FRVDEEFQSPFASQSRGYFLFRPRN-CONH2 (Ac-C((PEG)2 40 kDa)FRVDEEFQSPFASQSRGYFLFRPRN-NH2; also: PEG size not given here) [NMU12, PEGylated NMU analog; differs from NMU9 by the source of the PEG]”, the plasma glucose levels entry in the data set with plasma glucose levels (0.1 mpk) and in the data set on plasma glucose levels (1 mpk) was “reduced” in each case. Also, the PYY levels entry in the data set with PYY levels in plasma (10 mpk, 18-hr post dose, absence of food (FIG. 4B)) is given as “did not increase”. Besides, the “PYY levels in plasma” value in the data set on PYY levels in plasma (18-hours post dose, presence of food, obese mice (FIG. 4A)) is on record as “dose-dependently increased”. For the same substance, the “total GLP-1 levels” value is reported as “increased” in data set [1] (18-hours post dose, absence of food (FIG. 5B)) and “increased” in data set [1] (18-hours post dose, presence of food (FIG. 5A)). For the same substance, the glucagon levels entry in data set [2] (0.1 mpk) and in data set [2] (1 mpk) was “reduced” in each case. The food intake result in the data set with Nmur1 knockout mice (Nmur1 knockout mice) was “reduce food intake”. In the data set with Nmur1 knockout mice (Nmur1 knockout mice), the weight gain result was “reduce weight gain”. Besides, the “crossing the blood-brain barrier” value in the data set with Nmur1 knockout mice (inferred from effect in Nmur1 knockout mice) is “able to cross the blood-brain barrier”.

Source of the values: US20110294735A1, “MECHANISM OF NEUROMEDIN U ACTION AND USES THEREOF” (MERCK SHARP & DOHME CORP., priority 2008, published 2011).
